Assay: molar heat capacity at constant pressure
Conditions: 101.33 kPa, Crystal 3

Clc1ccc(Cl)cc1 [1,4-dichlorobenzene]
Conditions | molar heat capacity at constant pressure [J/K/mol]
5.11 K | 0.29
6.43 K | 0.42
7.21 K | 0.83
7.89 K | 1.18
9.58 K | 2.1
10 K | 2.33
11.66 K | 3.22
13.08 K | 4.5
14.5 K | 6.12
15 K | 6.7
15.94 K | 7.81
18.49 K | 10.86
19 K | 11.19
20 K | 12.69
20.21 K | 12.96
21.65 K | 14.62
22.92 K | 16.12
24.05 K | 17.45
25 K | 18.52
25.09 K | 18.62
26.05 K | 19.66
28.53 K | 21.78
30 K | 23.27
32.77 K | 26.1
34.99 K | 28.16
36.99 K | 29.91
38.82 K | 31.33
40 K | 32.27
42.09 K | 33.94
44.35 K | 35.66
46.46 K | 37.19
48.44 K | 38.2
50 K | 39.36
52.09 K | 40.68
53.8 K | 41.66
55.44 K | 42.56
57.02 K | 43.48
58.55 K | 44.32
60 K | 45.13
60.03 K | 45.14
63.79 K | 47.24
66.94 K | 48.83
69.94 K | 50.35
70 K | 50.38
72.81 K | 51.62
80 K | 55.34
82.41 K | 56.53
85.29 K | 57.82
88.14 K | 59.02
90 K | 59.86
91.01 K | 60.3
93.9 K | 61.52
96.8 K | 62.72
99.71 K | 63.94
100 K | 64.06
102.62 K | 65.39
103.2 K | 65.58
105.55 K | 66.59
107.33 K | 67.31
108.49 K | 67.79
110 K | 68.42
111.35 K | 68.99
111.43 K | 69.01
114.39 K | 70.21
115.28 K | 70.59
117.35 K | 71.41
119.12 K | 72.17
120 K | 72.49
120.32 K | 72.62
122.89 K | 73.69
123.3 K | 73.82
126.28 K | 75.05
126.6 K | 75.16
129.27 K | 76.26
130 K | 76.54
130.24 K | 76.63
132.26 K | 77.49
133.83 K | 78.06
135.26 K | 78.7
137.36 K | 79.47
138.27 K | 79.99
140 K | 80.56
140.85 K | 80.87
141.27 K | 81.11
144.27 K | 82.33
147.28 K | 83.54
147.69 K | 83.58
150 K | 84.62
150.29 K | 84.72
151.05 K | 84.88
153.31 K | 85.92
156.33 K | 87.11
159.35 K | 88.32
160 K | 88.57
162.38 K | 89.5
165.4 K | 90.68
168.43 K | 91.85
170 K | 92.45
171.47 K | 93.01
177.53 K | 95.43
180 K | 96.42
180.53 K | 96.63
183.51 K | 97.84
186.47 K | 98.95
188.91 K | 99.81
189.41 K | 100.08
190 K | 100.33
191.9 K | 101.04
192.33 K | 101.32

Reference: the NIST ThermoML archive (doi:10.1021/je049762q)
